Tests used:
Type in all cases: in vivo
[1] = test system: Beet Armyworm (Spodoptera exigua, LAPHEG) second instar larvae; experiment: Bioassay on Beet Armyworm (BAW), 128-well diet tray assay; conditions: for pest or weed control at 50 µg/cm2: Beet Armyworm, Table ABC Biological Results, read-out: BAW rating; for mortality at 0.05 µg/cm2: 0.05 μg/cm^2 on artificial diet; for mortality at 0.05 µg/cm2 / mortality at 0.5 µg/cm2 / mortality at 5 µg/cm2: read-out: Percent control (or mortality) BAW; for mortality at 0.5 µg/cm2: 0.5 μg/cm^2 on artificial diet; for mortality at 5 µg/cm2: 5 μg/cm^2 on artificial diet
Method: (§1) Certain molecules disclosed in this document were tested against BAW, CEW, and CL using procedures described in the following examples. In the reporting of the results, the “BAW, CEW, & CL Rating Table” was used (See Table Section).
Bioassays on BAW were conducted using a 128-well diet tray assay. one to five second instar BAW larvae were placed in each well (3 mL) of the diet tray that had been previously filled with 1 mL of artificial diet to which 50 μg/cm^2 of the test molecule (dissolved in 50 μL of 90:10 acetone-water mixture) had been applied (to each of eight wells) and then allowed to dry. Trays were covered with a clear self-adhesive cover and held at 25° C., 14:10 light-dark for five to seven days. Percent mortality was recorded for the larvae in each well; activity in the eight wells was then averaged. The results are indicated in the table entitled “Table ABC: Biological Results” (See Table Section).
(§2) Bioassays on BAW and CL were conducted according to the procedures outlined in Example A: Bioassays on Beet Armyworm (“BAW”) and Cabbage Looper (“CL”) using the indicated concentrations.

[2] = test system: Cabbage Looper (Trichoplusia ni, TRIPNI) second instar larvae; experiment: Bioassay on Cabbage Looper (CL), 128-well diet tray assay; conditions: for pest or weed control at 50 µg/cm2: Cabbage Looper, Table ABC Biological Results, read-out: CL rating; for mortality at 0.05 µg/cm2: 0.05 μg/cm^2 on artificial diet; for mortality at 0.05 µg/cm2 / mortality at 0.5 µg/cm2 / mortality at 5 µg/cm2: read-out: Percent control (or mortality) CL; for mortality at 0.5 µg/cm2: 0.5 μg/cm^2 on artificial diet; for mortality at 5 µg/cm2: 5 μg/cm^2 on artificial diet
Method: as §1
Bioassays on CL were conducted using a 128-well diet tray assay. one to five second instar CL larvae were placed in each well (3 mL) of the diet tray that had been previously filled with 1 mL of artificial diet to which 50 μg/cm^2 of the test molecule (dissolved in 50 μL of 90:10 acetone-water mixture) had been applied (to each of eight wells) and then allowed to dry. Trays were covered with a clear self-adhesive cover and held at 25° C., 14:10 light-dark for five to seven days. Percent mortality was recorded for the larvae in each well; activity in the eight wells was then averaged. The results are indicated in the table entitled “Table ABC: Biological Results” (See Table Section).
as §2

[3] = test system: Yellow Fever Mosquito (Aedes aegypti, AEDSAE) larvae; experiment: Bioassay on Yellow Fever Mosquito (YFM), 96-well plate larval assay; conditions: Table ABC Biological Results
Method: Certain molecules disclosed in this document were tested against YFM using procedures described in the following paragraph. In the reporting of the results, the “GPA & YFM Rating Table” was used (See Table Section).
Master plates containing 400 μg of a molecule dissolved in 100 μL of dimethyl sulfoxide (DMSO) (equivalent to a 4000 ppm solution) are used. A master plate of assembled molecules contains 15 μL per well. To this plate, 135 μL of a 90:10 water:acetone mixture is added to each well. A robot (Biomek® NXP Laboratory Automation Workstation) is programmed to dispense 15 μL aspirations from the master plate into an empty 96-well shallow plate (“daughter” plate). There are 6 reps (“daughter” plates) created per master. The created daughter plates are then immediately infested with YFM larvae.
The day before plates are to be treated, mosquito eggs are placed in Millipore water containing liver powder to begin hatching (4 g. into 400 mL). After the daughter plates are created using the robot, they are infested with 220 μL of the liver powder/larval mosquito mixture (about 1 day-old larvae). After plates are infested with mosquito larvae, a non-evaporative lid is used to cover the plate to reduce drying. Plates are held at room temperature for 3 days prior to grading. After 3 days, each well is observed and scored based on mortality. The results are indicated in the table entitled “Table ABC: Biological Results” (See Table Section).

SMILES | pest or weed control at 50 µg/cm2 [1] [%] | pest or weed control at 50 µg/cm2 [2] [%] | YFM rating [3] | mortality at 0.05 µg/cm2 [1] [%] | mortality at 0.5 µg/cm2 [1] [%] | mortality at 5 µg/cm2 [1] [%] | mortality at 0.05 µg/cm2 [2] [%] | mortality at 0.5 µg/cm2 [2] [%] | mortality at 5 µg/cm2 [2] [%]
C[C@H](NC(=O)CC(F)(F)F)NC(=O)c1ccc(/C(F)=C/C(c2cc(Cl)c(Cl)c(Cl)c2)C(F)(F)F)c2ccccc12 (stereo partly drawn) [PF1, 4-((Z)-1,4,4,4-Tetrafluoro-3-(3,4,5-trichlorophenyl)but-1-en-1-yl)-N—((R)-1-(3,3,3-trifluoropropanamido)ethyl)-1-naphthamide] | 50 to 100 | 50 to 100 | B (More than 0-Less than 80) |  |  |  |  |  | 
C[C@H](NC(=O)CC(F)(F)F)NC(=O)c1ccc(/C(F)=C/C(c2cc(Br)c(Cl)c(Br)c2)C(F)(F)F)cc1C(F)(F)F (stereo partly drawn) [F26, 4-((Z)-3-(3,5-Dibromo-4-chlorophenyl)-1,4,4,4-tetrafluorobut-1-en-1-yl)-2-(trifluoromethyl)-N—((R)-1-(3,3,3-trifluoropropanamido)ethyl)benzamide] | 50 to 100 | 50 to 100 | A (80-100) |  |  |  |  |  | 
Cc1cc(C(/C=C(\F)c2ccc(C(=O)N[C@H](C)NC(=O)CCC(F)(F)F)c(C(F)(F)F)c2)C(F)(F)F)cc(C)c1Cl (stereo partly drawn) [F25, 4-((Z)-3-(4-Chloro-3,5-dimethylphenyl)-1,4,4,4-tetrafluorobut-1-en-1-yl)-N—((R)-1-(4,4,4-trifluorobutanamido)ethyl)-2-(trifluoromethyl)benzamide] | 50 to 100 | 50 to 100 | A (80-100) |  |  |  |  |  | 
Cc1cc(C(/C=C(\F)c2ccc(C(=O)N[C@H](C)NC(=O)CC(F)(F)F)c(C(F)(F)F)c2)C(F)(F)F)cc(Cl)c1Cl (stereo partly drawn) [PF4, 4-((Z)-3-(3,4-Dichloro-5-methylphenyl)-1,4,4,4-tetrafluorobut-1-en-1-yl)-2-(trifluoromethyl)-N—((R)-1-(3,3,3-trifluoropropanamido)ethyl)benzamide] | 50 to 100 | 50 to 100 | B (More than 0-Less than 80) |  |  |  |  |  | 
C[C@H](NC(=O)CC(F)(F)F)NC(=O)c1ccc(/C(F)=C/C(c2cc(Br)cc(Br)c2)C(F)(F)F)cc1C(F)(F)F (stereo partly drawn) [F22, 4-((Z)-3-(3,5-Dibromophenyl)-1,4,4,4-tetrafluorobut-1-en-1-yl)-2-(trifluoromethyl)-N—((R)-1-(3,3,3-trifluoropropanamido)ethyl)benzamide] | 50 to 100 | 50 to 100 | A (80-100) |  |  |  |  |  | 
C[C@H](NC(=O)CC(F)(F)F)NC(=O)c1ccc(/C(F)=C/C(c2ccc(Br)c(Br)c2)C(F)(F)F)cc1C(F)(F)F (stereo partly drawn) [F32, 4-((Z)-3-(3,4-Dibromophenyl)-1,4,4,4-tetrafluorobut-1-en-1-yl)-2-(trifluoromethyl)-N—((R)-1-(3,3,3-trifluoropropanamido)ethyl)benzamide] | 50 to 100 | 50 to 100 | A (80-100) |  |  |  |  |  | 
C=Cc1c(Cl)cc(C(/C=C(\F)c2ccc(C(=O)N[C@H](C)NC(=O)CCC(F)(F)F)c(C(F)(F)F)c2)C(F)(F)F)cc1Cl (stereo partly drawn) [F19, 4-((Z)-3-(3,5-Dichloro-4-vinylphenyl)-1,4,4,4-tetrafluorobut-1-en-1-yl)-N—((R)-1-(4,4,4-trifluorobutanamido)ethyl)-2-(trifluoromethyl)benzamide] | 50 to 100 | 50 to 100 | A (80-100) |  |  |  |  |  | 
C[C@H](NC(=O)CCC(F)(F)F)NC(=O)c1ccc(/C(F)=C/C(c2cc(Cl)c(Cl)c(Cl)c2)C(F)(F)F)cc1Br (stereo partly drawn) [F3, 2-Bromo-4-((Z)-1,4,4,4-tetrafluoro-3-(3,4,5-trichlorophenyl)but-1-en-1-yl)-N—((R)-1-(4,4,4-trifluorobutanamido)ethyl)benzamide] | 50 to 100 | 50 to 100 |  | 100 | 100 | 100 | 100 | 100 | 100
Cc1cc(/C(F)=C/C(c2cc(Cl)c(Cl)c(Cl)c2)C(F)(F)F)ccc1C(=O)N[C@H](C)NC(=O)CC(F)(F)F (stereo partly drawn) [F33, 2-Methyl-4-((Z)-1,4,4,4-tetrafluoro-3-(3,4,5-trichlorophenyl)but-1-en-1-yl)-N—((R)-1-(3,3,3-trifluoropropanamido)ethyl)benzamide] | 50 to 100 | 50 to 100 |  | 88 | 100 | 100 | 100 | 100 | 100
C[C@H](NC(=O)CC(F)(F)F)NC(=O)c1ccc(/C(F)=C/C(c2cc(Cl)c(Cl)c(Cl)c2)C(F)(F)F)cc1C(F)(F)F (stereo partly drawn) [F5, 4-((Z)-1,4,4,4-Tetrafluoro-3-(3,4,5-trichlorophenyl)but-1-en-1-yl)-2-(trifluoromethyl)-N—((R)-1-(3,3,3-trifluoropropanamido)ethyl)benzamide] | 50 to 100 | 50 to 100 |  | 100 | 100 | 100 | 100 | 100 | 100
C[C@H](NC(=O)CCC(F)(F)F)NC(=O)c1ccc(/C(F)=C/C(c2ccc(Cl)c(Br)c2)C(F)(F)F)cc1C(F)(F)F (stereo partly drawn) [PF13, 4-((Z)-3-(3-Bromo-4-chlorophenyl)-1,4,4,4-tetrafluorobut-1-en-1-yl)-N—((R)-1-(4,4,4-trifluorobutanamido)ethyl)-2-(trifluoromethyl)benzamide] | 50 to 100 | 50 to 100 |  |  |  |  |  |  | 
Cc1cc(/C(F)=C/C(c2cc(Cl)c(Cl)c(Cl)c2)C(F)(F)F)ccc1C(=O)N[C@H](C)NC(=O)CCC(F)(F)F (stereo partly drawn) [F2, 2-Methyl-4-((Z)-1,4,4,4-tetrafluoro-3-(3,4,5-trichlorophenyl)but-1-en-1-yl)-N—((R)-1-(4,4,4-trifluorobutanamido)ethyl)benzamide] | 50 to 100 | 50 to 100 |  | 100 | 100 | 100 | 100 | 100 | 100
C[C@H](NC(=O)CC(F)(F)F)NC(=O)c1ccc(/C(F)=C/C(c2ccc(Br)c(Cl)c2)C(F)(F)F)cc1C(F)(F)F (stereo partly drawn) [PF8, 4-((Z)-3-(4-Bromo-3-chlorophenyl)-1,4,4,4-tetrafluorobut-1-en-1-yl)-2-(trifluoromethyl)-N—((R)-1-(3,3,3-trifluoropropanamido)ethyl)benzamide] | 50 to 100 | 50 to 100 |  |  |  |  |  |  | 
C[C@H](NC(=O)CC(F)(F)F)NC(=O)c1ccc(/C(F)=C/C(c2cc(Cl)c(Cl)c(Cl)c2)C(F)(F)F)cc1Cl (stereo partly drawn) [F7, 2-Chloro-4-((Z)-1,4,4,4-tetrafluoro-3-(3,4,5-trichlorophenyl)but-1-en-1-yl)-N—((R)-1-(3,3,3-trifluoropropanamido)ethyl)benzamide] | 50 to 100 | 50 to 100 |  | 79 | 100 | 100 | 100 | 100 | 100
C[C@@H](NC(=O)c1ccc(/C(F)=C/C(c2cc(Cl)c(Cl)c(Cl)c2)C(F)(F)F)cc1C(F)(F)F)NS(=O)(=O)CC(F)(F)F (stereo partly drawn) [F28, 4-((Z)-1,4,4,4-tetrafluoro-3-(3,4,5-trichlorophenyl)but-1-en-1-yl)-N—((S)-1-(2,2,2-trifluoroethylsulfonamido)ethyl)-2-(trifluoromethyl)benzamide] | 50 to 100 | 50 to 100 |  |  |  |  |  |  | 

Reference: patent US9924716B2, “Molecules having pesticidal utility, and intermediates, compositions, and processes, related thereto” (Dow AgroSciences LLC, priority 2016, dated 2018)
